Measurements from ChEMBL document CHEMBL5370695, “Novel Adenosine Receptor Antagonists for Treating Cancer and Immune-Related Disorders” (ACS Med Chem Lett, 2023).

Tests used:
Adenosine receptor A2b = target: T1, Adenosine receptor A2b (Homo sapiens, UniProt P29275); test: Binding affinity to recombinant human adenosine A2B receptor expressed in HEK293 cell membrane incubated for 15 to 30 mins by Topcount scintillation counter assay; type: cell membranes
T1 sequence (P29275 whole entry): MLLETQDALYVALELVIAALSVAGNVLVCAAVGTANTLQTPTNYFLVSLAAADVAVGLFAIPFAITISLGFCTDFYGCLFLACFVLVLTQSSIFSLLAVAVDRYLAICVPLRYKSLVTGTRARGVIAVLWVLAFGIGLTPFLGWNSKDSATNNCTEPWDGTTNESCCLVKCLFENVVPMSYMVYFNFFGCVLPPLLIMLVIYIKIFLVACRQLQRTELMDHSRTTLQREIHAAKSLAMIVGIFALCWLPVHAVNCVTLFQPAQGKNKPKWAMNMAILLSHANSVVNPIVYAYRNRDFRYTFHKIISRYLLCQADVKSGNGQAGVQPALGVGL

Adenosine receptor A2a = Adenosine receptor A2a (Homo sapiens, UniProt P29274); test: Displacement of [3H]-SCH58261 from recombinant human adenosine A2A receptor expressed in HEK293 cell membrane incubated for 15 to 30 mins by Topcount scintillation counter assay; type: cell membranes
Chain of Adenosine receptor A2a (P29274 whole entry): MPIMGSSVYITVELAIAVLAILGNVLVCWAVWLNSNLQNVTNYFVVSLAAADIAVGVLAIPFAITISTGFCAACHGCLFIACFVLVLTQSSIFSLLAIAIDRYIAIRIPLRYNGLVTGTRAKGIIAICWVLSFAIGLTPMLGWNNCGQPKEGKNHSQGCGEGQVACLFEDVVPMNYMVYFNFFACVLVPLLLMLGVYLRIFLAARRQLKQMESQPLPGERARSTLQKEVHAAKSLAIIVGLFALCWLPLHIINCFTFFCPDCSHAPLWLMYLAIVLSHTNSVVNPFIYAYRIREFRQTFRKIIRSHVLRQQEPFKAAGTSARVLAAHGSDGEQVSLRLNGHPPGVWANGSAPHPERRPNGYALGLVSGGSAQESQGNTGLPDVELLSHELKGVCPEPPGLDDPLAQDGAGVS

SMILES | IC50 (Adenosine receptor A2b) [nM] | IC50 (Adenosine receptor A2a) [nM]
COc1cccc2c1nc(N)n1nc(C3CC3c3ccc4c(c3)CCNC4)nc21 (stereo unspecified) | 3.1 | 1.1
COc1cccc2c1nc(N)n1nc([C@H]3C[C@H](c4ncc(C(C)(C)N)cc4C)C3)nc21 | 1.6 | 
COc1cccc2c1nc(N)n1nc([C@H]3C[C@H](c4ccc(C(C)(C)O)cn4)C3)nc21 | 3.3 | 
COc1cccc2c1nc(N)n1nc([C@H]3C[C@H](c4ncc(C(C)(C)N)cc4Cl)C3)nc21 | 2.7 | 0.8
